One experiment relates to Escherichia coli. The experiment can be described thus: Antibacterial activity against Escherichia coli. It counts as functional.
The nature of experiment [1]: Inhibition of Escherichia coli primase by scintillation proximity assay.

≈ marks a conversion by molar mass, not a printed value.

In the case of `COc1ccc(-c2cn3c4ccccc4n(CCN4CCCCC4)c3n2)cc1`, the MIC – broadly, the lowest concentration found to suppress growth – in the experiment with Escherichia coli was over 64 µg/mL. Further, half-maximal inhibition in experiment [1] (IC50) was put at 162 µM.
The compound `CCN1CCN(c2nc(-c3ccncc3)nc3ccccc23)CC1` registered an MIC in the experiment on Escherichia coli of over 64 µg/mL. In experiment [1], inhibition was half-maximal at 27.3 µM (IC50).
Taken in the same sequence, the figures for `OCCN1CCN(c2ncnc3c2oc2ccccc23)CC1` were 64 µg/mL (≈ 215 µM) and 138 µM.
`CN1CCN(c2nc(-c3ccccc3)nc3c2oc2ccccc23)CC1` came in with a minimal inhibitory concentration (MIC) in the experiment with Escherichia coli of over 64 µg/mL. Also, the concentration for half-maximal inhibition (IC50) (usually the concentration at which inhibition is half-maximal) in experiment [1] worked out at 42.5 µM.
In the experiment on Escherichia coli, `c1ccc2c(c1)oc1c(N3CCN(C4CCCC4)CC3)ncnc12` had a minimum inhibitory concentration (MIC) of over 64 µg/mL. Further, half-maximal inhibition in experiment [1] (IC50) required 122 µM.
On to `c1csc(-c2cn3c4ccccc4n(CCN4CCCCC4)c3n2)c1`, for which the MIC in the experiment with Escherichia coli was determined as 64 µg/mL (≈ 183 µM). Besides, the IC50 in experiment [1] stood at 32.3 µM.
Taken in the same sequence, the figures for `CN1CCN(c2nc(Nc3cccc(O)c3)nc3ccccc23)CC1` were over 64 µg/mL and 50.5 µM.
As for `CSc1nc(NCCN(C)C)c2sc3nc(CC(C)C)c4c(c3c2n1)CCC4`, the MIC with Escherichia coli was found to be 4 µg/mL (≈ 9.62 µM). The half-maximal inhibitory concentration (IC50) in experiment [1] came out at 22 µM.
`CCN1CCN(c2nc(SC)nc3c2sc2nc(C(C)C)c4c(c23)CCC4)CC1`: the minimal inhibitory concentration (MIC) with Escherichia coli is over 64 µg/mL. This compound also yielded an IC50 in experiment [1] of over 200 µM.
Regarding `CCCCc1nc2sc3c(NCCN(C)C)nc(SC)nc3c2c2c1CCC2`, it took 8 µg/mL (≈ 19.2 µM) to inhibit growth in the experiment with Escherichia coli (MIC). This compound also displayed an IC50 in experiment [1] of 103 µM.
In turn, `CCc1nc(N2CCN(CC)CC2)c2oc3ccccc3c2n1` registered an MIC in the experiment on Escherichia coli of over 64 µg/mL. Besides, inhibition in experiment [1] was half-maximal at 170 µM (IC50).
In the experiment on Escherichia coli, `CSc1nc(NCCN(C)C)c2sc3nc(CC(C)C)c4c(c3c2n1)CC(C)(C)OC4` returned a minimum inhibitory concentration (MIC) of over 64 µg/mL. Besides, the concentration for half-maximal inhibition (IC50) in experiment [1] was 79.2 µM.
In turn, `CN(C)CCOc1nc(-c2ccccc2)nc2c1oc1ccccc12` gave a minimum inhibitory concentration (MIC) against Escherichia coli of 4 µg/mL (≈ 12 µM). Further, the IC50 in experiment [1] worked out at 3.4 µM.
The like results for `c1ccc(-c2cn3c4ccccc4n(CCN4CCCCC4)c3n2)cc1` were, in that order, 64 µg/mL (≈ 186 µM) and 18.4 µM.
The compound `CSc1nc(NCCN(C)C)c2sc3nc(C(C)C)c4c(c3c2n1)CCC4` gave an MIC in the experiment with Escherichia coli of 8 µg/mL (≈ 19.9 µM). Further, the IC50 in experiment [1] is 26.6 µM.
`Cc1ccc(-c2cn3c4ccccc4n(CCN4CCCCC4)c3n2)cc1` displayed an MIC in the experiment with Escherichia coli of 64 µg/mL (≈ 179 µM). Moreover, in experiment [1], the IC50 was 99.5 µM.
In the experiment with Escherichia coli, `CN(C)CCNc1cc(-c2ccncc2)nc(-c2ccccn2)n1` displayed an MIC of over 64 µg/mL. This compound yielded an IC50 in experiment [1] of 44.7 µM.
In the experiment on Escherichia coli, `CC(C)c1nc2sc3c(NCCN(C)C)ncnc3c2c2c1CCCC2` displayed an MIC of 16 µg/mL (≈ 43.3 µM). The IC50 in experiment [1] is 61 µM.
Turning to `CN1CCN(c2nc(-c3ccc(Cl)cc3)nc3c2oc2ccccc23)CC1`, the MIC with Escherichia coli is over 64 µg/mL. Besides, the half-maximal inhibitory concentration (IC50) in experiment [1] is over 200 µM.
In the experiment on Escherichia coli, `CSc1nc(NCCN2CCOCC2)c2sc3nc(C(C)C)c4c(c3c2n1)CCC4` yielded a minimal inhibitory concentration (MIC) of over 64 µg/mL. The same compound returned an IC50 in experiment [1] of over 200 µM.
As to `CCN(CC)CCNc1nc(SC)nc2c1sc1nc(N3CCOCC3)c3c(c12)CC(C)(C)OC3`, the MIC against Escherichia coli stood at 64 µg/mL (≈ 124 µM). This compound yielded an IC50 in experiment [1] of 45 µM.
The like results for `CN1CCN(c2ncnc3c2oc2ccccc23)CC1` were, in that order, 64 µg/mL (≈ 239 µM) and 85.1 µM.
Compound `CCN(CC)CCNc1nc(SC)nc2c1sc1nc(C)c3c(c12)CC(C)(C)OC3` showed a minimal inhibitory concentration (MIC) in the experiment on Escherichia coli of 32 µg/mL (≈ 71.8 µM). The IC50 in experiment [1] was found to be 16.9 µM.
The like results for `CCN(CC)CCNc1nc(SC)nc2c1sc1nc(C(C)C)c3c(c12)CCC3` were, in that order, over 64 µg/mL and 36 µM.
The like results for `CN1CCN(c2nc(-c3ccccc3O)nc3ccccc23)CC1` were, in that order, over 64 µg/mL and 7.2 µM.

Values taken from ChEMBL document CHEMBL1147896, “Small molecule inhibitors of E. coli primase, a novel bacterial target” (Bioorg Med Chem Lett, 2007).
